pIC50: −log10 of the molar value.
Assays:
[1] = biological target: T1, human tryptophan 2,3-dioxygenase (hTDO) (Homo sapiens, UniProt P48775); assay: In-vitro human tryptophan 2,3-dioxygenase (TDO) enzyme assay; assay type: biochemical; settings: for inhibition at 1 µM: hTDO enzyme at 1.0 μM concentration; for inhibition at 10 µM: hTDO enzyme at 10.0 μM concentration
T1 construct: His tag (N); purchased BPS Bioscience, San Diego, Calif., USA; host or cells: E. coli
Procedure, shortened: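 N-His-tagged hTDO expressed in E. coli (125 ng) incubated with 200 μM L-tryptophan, 100 mM sodium phosphate pH 7.0, 0.01% Tween-20, 100 μM ascorbate, 60 min at 37 °C. Product converted with 200 mM piperidine (65 °C, 20 min) to NFK-PIP, fluorescence 400/500 nm; IC50 by nonlinear regression.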

[2] = biological target: T2, human indoleamine 2,3-dioxygenase 1 (hIDO1) (Homo sapiens, UniProt P14902); assay: In-vitro human indoleamine 2,3-dioxygenase 1 (IDO1) enzyme assay; assay type: biochemical; settings: for inhibition at 1 µM: hIDO1 enzyme at 1.0 μM concentration; for inhibition at 10 µM: hIDO1 enzyme at 10.0 μM concentration; for pIC50: hIDO1 enzyme
T2 construct: His tag (N); purchased BPS Bioscience, San Diego, Calif., USA; host or cells: E. coli
T2 sequence (P14902 whole entry): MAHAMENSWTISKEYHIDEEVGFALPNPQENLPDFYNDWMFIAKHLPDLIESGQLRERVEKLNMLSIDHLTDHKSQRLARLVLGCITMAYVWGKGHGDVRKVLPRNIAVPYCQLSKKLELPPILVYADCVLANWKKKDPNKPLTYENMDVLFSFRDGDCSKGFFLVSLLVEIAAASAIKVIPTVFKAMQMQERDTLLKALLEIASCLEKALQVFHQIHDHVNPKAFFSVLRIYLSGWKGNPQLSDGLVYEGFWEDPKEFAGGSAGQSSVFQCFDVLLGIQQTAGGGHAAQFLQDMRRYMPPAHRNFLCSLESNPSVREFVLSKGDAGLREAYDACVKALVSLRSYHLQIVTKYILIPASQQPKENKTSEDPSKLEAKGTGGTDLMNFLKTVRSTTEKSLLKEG
Procedure, shortened: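 His-tagged hIDO1 (E. coli, 50 ng) incubated with 80 μM tryptophan, 10 mM ascorbate, 10 μM methylene blue, catalase and 0.01% Tween-20 in 50 mM sodium phosphate pH 6.5, 60 min, 37 °C. Piperidine converts N-formylkynurenine to fluorescent NFK-PIP (ex 400/em 500 nm); IC50 by nonlinear regression.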

T1 sequence (P48775 whole entry): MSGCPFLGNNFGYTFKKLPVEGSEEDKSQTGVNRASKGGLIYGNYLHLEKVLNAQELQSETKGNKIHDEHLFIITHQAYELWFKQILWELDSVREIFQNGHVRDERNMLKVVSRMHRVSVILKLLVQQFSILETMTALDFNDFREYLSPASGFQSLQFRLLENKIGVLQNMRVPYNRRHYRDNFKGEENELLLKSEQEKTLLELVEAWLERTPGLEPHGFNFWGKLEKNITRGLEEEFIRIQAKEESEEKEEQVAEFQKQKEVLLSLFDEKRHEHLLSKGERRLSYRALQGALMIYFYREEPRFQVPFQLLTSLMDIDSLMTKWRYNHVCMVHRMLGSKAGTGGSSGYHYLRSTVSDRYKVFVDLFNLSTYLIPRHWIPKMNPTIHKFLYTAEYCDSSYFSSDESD

| inhibition at 1 µM [1] | inhibition at 1 µM [2] | inhibition at 10 µM [2] | inhibition at 10 µM [1] | pIC50 [2] | SMILES |
| --- | --- | --- | --- | --- | --- |
| ≥ 50% | ≤ 50% | ≥ 50% | – | – | CC1=C(c2ccccc2)C(CC(=O)C2CCCN2S(=O)(=O)c2ccc(C)cc2)n2cncc21 (stereo not drawn) [Example 113] |
| – | ≥ 50% | ≥ 50% | ≥ 50% | – | CCCCCCCCC(O)CC1C(c2ccccc2)=C(C)c2cncn21 (stereo not drawn) [Compound 171, 1-(7-Methyl-6-phenyl-5H-pyrrolo[1,2-c]imidazol-5-yl)-decan-2-ol] |
| ≥ 50% | ≥ 50% | ≥ 50% | – | > 6.30 | CC1=C(c2ccccc2)C(CC(=O)c2ccc(-c3ccc(C)cc3)cc2)n2cncc21 (stereo not drawn) [Example 62] |
| ≤ 50% | ≥ 50% | ≥ 50% | – | > 6.30 | CC1=C(c2ccccc2)C(CC(O)C2CCN(C(=O)Nc3ccccn3)CC2)n2cncc21 (stereo not drawn) [Example 167] |
| ≤ 50% | ≥ 50% | ≥ 50% | – | > 6.30 | CCOC(=O)N1CCC(C(O)CC2C(c3ccccc3)=C(C)c3cncn32)CC1 (stereo not drawn) [Example 148] |
| ≥ 50% | ≥ 50% | ≥ 50% | ≥ 50% | – | CNC(=O)c1ccc(C(=O)CC2C(c3ccccc3)=C(C)c3cncn32)cc1 (stereo not drawn) [Example 78] |
| ≥ 50% | ≥ 50% | ≥ 50% | – | > 6.30 | CC1=C(c2ccccc2)C(CC(=O)c2ccc(-c3ccncc3)cc2)n2cncc21 (stereo not drawn) [Example 53] |
| ≥ 50% | ≥ 50% | ≥ 50% | – | > 6.30 | CC1=C(c2ccccc2)C(CC(=O)c2ccc(-c3cccnc3)cc2)n2cncc21 (stereo not drawn) [Example 55] |
| ≥ 50% | ≥ 50% | ≥ 50% | ≥ 50% | < 6.30 | CC1=C(c2ccccc2)C(CC(=O)c2ccccc2)n2cncc21 (single isomer, unassigned) [Example 30] |
| ≤ 50% | ≤ 50% | ≥ 50% | – | – | CCOC(=O)CCC(=O)CC1C(c2ccccc2)=C(C)c2cncn21 (stereo not drawn) [Example 173, Ethyl 5-(7-methyl-6-phenyl-5H-pyrrolo[1,2-c]imidazol-5-yl)-4-oxopentanoate] |
| – | – | ≤ 50% | ≥ 50% | – | O=C(CC1C2=C(CCCC2)c2cncn21)c1cccc(Cl)c1 (stereo not drawn) [Example 3] |
| ≤ 50% | ≥ 50% | ≥ 50% | – | > 6.30 | CC1=C(c2ccccc2)C(CC(=O)c2ccc(-c3ccsc3)cc2)n2cncc21 (stereo not drawn) [Example 56] |
| ≥ 50% | ≤ 50% | ≥ 50% | – | – | CC1=C(c2ccccc2)C(CC(=O)C2CCN(C(=O)c3ccccc3)CC2)n2cncc21 (stereo not drawn) [Example 142] |
| ≥ 50% | ≤ 50% | ≤ 50% | – | – | CC1=C(c2ccc(C)cc2)C(CC(=O)C2CCCCC2)n2cncc21 (stereo not drawn) [Example 86, 1-Cyclohexyl-2-(7-methyl-6-(p-tolyl)-5H-pyrrolo[1,2-c]imidazol-5-yl)ethan-1-one] |
| ≥ 50% | ≥ 50% | ≥ 50% | – | > 6.30 | COc1ccc(C(=O)CC2C(c3ccccc3)=C(C)c3cncn32)cc1 (stereo not drawn) [Example 37, 1-(4-methoxyphenyl)-2-(7-methyl-6-phenyl-5H-pyrrolo[1,2-c]imidazol-5-yl)ethan-1-one] |
| – | – | ≥ 50% | ≥ 50% | < 6.30 | CC1=C(c2ccccc2)C(CC(O)c2ccccc2)n2cncc21 (stereo not drawn) [Example 12, 2-(7-Methyl-6-phenyl-5H-pyrrolo[1,2-c]imidazol-5-yl)-1-phenyl-ethanol] |
